These results are taken from patent US20250352508A1, “PREVENTION AND TREATMENT OF POST-ACUTE INFECTION SYNDROMES” (InflammX Therapeutics, Inc., priority 2024, published 2025).

For one series, the system named is AIM2 inflammasome. The settings on record: cited from earlier work.
The subject of the next series is NLRC4 inflammasome. The settings on record: cited from earlier work.
The target of the next series is NLRP3 inflammasome (Homo sapiens, UniProt Q96P20). Conditions: cited from earlier work.
The test system of the next series is Cx43 hemichannel. The settings on record: glioma cells; read-out: IC50 (half maximal inhibitory concentration) for the inhibition of ATP release; cited from earlier work.
The target of a further series is gap junction (Homo sapiens, UniProt P17302). Conditions: cited from earlier work.
The next series concerns the target Panx1 channel (Homo sapiens, UniProt Q96RD7). Conditions: cited from earlier work.
Series [1] can be described thus: Pharmacokinetics of tonabersat after single and repeat oral dosing, 40 and 80 mg once daily. Format: in vivo, human. The settings on record: for half-life: human, plasma. From the text: In some embodiments, a connexin hemichannel modulator (e.g., a connexin 43 hemichannel modulator) is provided in an amount to achieve and/or to maintain a steady state amount over a desired period of time, including some or part of a dosing regimen for use in addressing one or more signs or symptom of a post-acute infection syndrome, disorder, disease or condition. In some embodiments, the connexin hemichannel modulator (e.g., a connexin 43 hemichannel modulator) is a compound according to Formula I. In some embodiments, the connexin hemichannel modulator (e.g., a connexin 43 hemichannel modulator) is a compound according to Formula II.

Series [2] is described as follows: Pharmacokinetics of tonabersat after single and multiple dosing, 240 to 400 mg, fasted and fed (MAD and DDI parts). Conditions: for AUC(0-inf) / half-life / Tmax: human, in vivo, oral; for AUC(0-inf): 320 mg; for half-life: read-out: geometric mean t1/2; for Tmax: read-out: median tmax. Format: in vivo, human. From the text: In some embodiments, a connexin hemichannel modulator (e.g., a connexin 43 hemichannel modulator) is provided in an amount to achieve and/or to maintain a steady state amount over a desired period of time, including some or part of a dosing regimen for use in addressing one or more signs or symptom of a post-acute infection syndrome, disorder, disease or condition. In some embodiments, the connexin hemichannel modulator (e.g., a connexin 43 hemichannel modulator) is a compound according to Formula I. In some embodiments, the connexin hemichannel modulator (e.g., a connexin 43 hemichannel modulator) is a compound according to Formula II. […] There was no evidence of time- or dose-related changes in systemic exposure of tonabersat. For a drug to show no change in its pharmacokinetic behavior on chronic dosing, the steady-state accumulation ratio (Rs) should equal unity. […] After both single and multiple dosing, Cmax and AUC increased with increasing dose in a dose-proportional manner across the dose range studied. […] Therefore, total exposure (extent of absorption) was not affected by food administration, whereas the rate of drug absorption was increased in the presence of food. […] The half-life was not affected by fed conditions.

The next series concerns the target gap junctions (Homo sapiens, UniProt P08034). Details: dose or concentration left out as unconfirmed. The settings on record: cited from earlier work.

Read-outs that look alike come from different tables or passages of the source. Where a SMILES comes first, the peptide text is derived from it.

Chain of gap junctions (P08034 whole entry): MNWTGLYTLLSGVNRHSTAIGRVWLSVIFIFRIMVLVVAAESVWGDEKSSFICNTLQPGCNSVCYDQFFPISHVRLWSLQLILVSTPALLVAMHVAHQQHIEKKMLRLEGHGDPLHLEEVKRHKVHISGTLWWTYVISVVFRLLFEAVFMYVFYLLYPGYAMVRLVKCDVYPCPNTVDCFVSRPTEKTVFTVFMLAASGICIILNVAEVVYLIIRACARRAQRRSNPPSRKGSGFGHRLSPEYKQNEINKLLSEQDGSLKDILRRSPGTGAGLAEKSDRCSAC
Chain of NLRP3 inflammasome (Q96P20 whole entry): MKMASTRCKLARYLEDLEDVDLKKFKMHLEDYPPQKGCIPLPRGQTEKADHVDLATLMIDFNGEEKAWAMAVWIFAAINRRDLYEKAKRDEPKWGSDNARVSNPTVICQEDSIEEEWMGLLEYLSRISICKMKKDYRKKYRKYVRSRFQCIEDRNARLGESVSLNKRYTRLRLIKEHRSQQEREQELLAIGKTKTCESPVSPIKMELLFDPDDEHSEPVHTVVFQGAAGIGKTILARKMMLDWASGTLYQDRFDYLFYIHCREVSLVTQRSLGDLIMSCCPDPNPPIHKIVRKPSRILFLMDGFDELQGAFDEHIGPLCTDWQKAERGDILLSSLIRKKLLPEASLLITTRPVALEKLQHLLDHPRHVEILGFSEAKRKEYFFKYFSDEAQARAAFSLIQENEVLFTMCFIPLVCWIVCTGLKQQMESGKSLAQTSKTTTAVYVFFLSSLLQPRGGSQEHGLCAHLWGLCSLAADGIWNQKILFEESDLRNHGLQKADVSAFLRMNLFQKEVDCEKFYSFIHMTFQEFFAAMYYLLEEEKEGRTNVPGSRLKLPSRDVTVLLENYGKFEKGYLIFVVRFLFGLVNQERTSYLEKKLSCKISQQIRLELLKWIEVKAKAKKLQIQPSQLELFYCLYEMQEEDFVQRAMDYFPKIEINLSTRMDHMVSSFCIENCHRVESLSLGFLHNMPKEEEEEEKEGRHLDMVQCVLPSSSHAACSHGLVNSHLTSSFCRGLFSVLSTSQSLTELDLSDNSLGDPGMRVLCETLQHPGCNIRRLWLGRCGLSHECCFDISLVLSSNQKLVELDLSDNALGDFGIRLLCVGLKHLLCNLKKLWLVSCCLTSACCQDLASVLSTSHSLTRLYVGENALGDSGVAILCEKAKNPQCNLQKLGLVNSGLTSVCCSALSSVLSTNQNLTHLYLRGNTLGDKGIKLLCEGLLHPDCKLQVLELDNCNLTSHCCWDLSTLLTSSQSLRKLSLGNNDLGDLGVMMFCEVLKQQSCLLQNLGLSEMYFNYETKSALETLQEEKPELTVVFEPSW
Chain of gap junction (P17302 whole entry): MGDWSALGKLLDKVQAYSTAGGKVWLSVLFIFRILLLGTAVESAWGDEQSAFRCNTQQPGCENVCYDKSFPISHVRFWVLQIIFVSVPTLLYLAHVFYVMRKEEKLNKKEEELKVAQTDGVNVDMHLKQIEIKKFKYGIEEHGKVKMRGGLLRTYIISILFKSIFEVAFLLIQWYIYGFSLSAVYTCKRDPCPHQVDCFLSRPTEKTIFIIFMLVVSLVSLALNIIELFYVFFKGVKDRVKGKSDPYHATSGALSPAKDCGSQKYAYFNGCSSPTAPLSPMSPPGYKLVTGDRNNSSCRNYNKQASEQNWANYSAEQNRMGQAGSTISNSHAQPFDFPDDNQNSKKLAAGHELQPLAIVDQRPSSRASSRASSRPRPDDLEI
Chain of Panx1 channel (Q96RD7 whole entry): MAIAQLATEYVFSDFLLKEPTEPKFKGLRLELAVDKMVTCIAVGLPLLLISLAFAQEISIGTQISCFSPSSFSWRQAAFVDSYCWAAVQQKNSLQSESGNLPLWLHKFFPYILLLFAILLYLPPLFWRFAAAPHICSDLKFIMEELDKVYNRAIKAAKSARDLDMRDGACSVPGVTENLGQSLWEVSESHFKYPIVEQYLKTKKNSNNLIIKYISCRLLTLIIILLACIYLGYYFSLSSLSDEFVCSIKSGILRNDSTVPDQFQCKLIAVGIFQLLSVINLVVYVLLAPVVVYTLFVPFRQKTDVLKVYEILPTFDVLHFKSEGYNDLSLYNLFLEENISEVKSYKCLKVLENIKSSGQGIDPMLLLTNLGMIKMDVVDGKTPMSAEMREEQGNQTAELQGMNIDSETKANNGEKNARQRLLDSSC

Take `CC(C)C[C@H](NC(=O)[C@H](Cc1ccccc1)NC(=O)c1c(F)cccc1F)B(O)O` [NIC-102, ((R)-1-((S)-2-(2,6-difluorobenzamido)-3-phenylpropanamido)-3-methylbutyl)boronic acid]: in the series on AIM2 inflammasome, the “effect on AIM2 inflammasome” value is “no effect”. The “effect on NLRC4 inflammasome” value in the series on NLRC4 inflammasome is recorded as “no effect”. For the same compound, the “effect on NLRP3 inflammasome activation” value on NLRP3 inflammasome is listed as “specifically prevents”.
As to `CC[C@H](C)[C@H](NC(=O)[C@H](CCC(=O)O)NC(=O)[C@@H](NC(=O)[C@H](CCC(N)=O)NC(=O)[C@H](CCCCN)NC(=O)[C@H](CCCNC(=N)N)NC(=O)[C@H](CCCNC(=N)N)NC(=O)[C@H](CCCNC(=N)N)NC(=O)[C@H](CCC(N)=O)NC(=O)[C@H](CCCNC(=N)N)NC(=O)[C@H](CCCNC(=N)N)NC(=O)[C@H](CCCCN)NC(=O)[C@H](CCCCN)NC(=O)[C@H](CCCNC(=N)N)NC(=O)CNC(=O)[C@@H](N)Cc1ccc(O)cc1)[C@@H](C)CC)C(=O)N[C@@H](CCCCN)C(=O)N[C@@H](CCCCN)C(=O)N[C@@H](Cc1ccccc1)C(=O)N[C@@H](CCCCN)C(=O)O` [TAT-^43Gap19] (H-YGRKKRRQRRRKQIEIKKFK-OH; N-terminus and C-terminus assumed), the IC50 with Cx43 hemichannel was 7 µM.
On to `CC[C@H](C)[C@H](NC(=O)[C@H](CCC(=O)O)NC(=O)[C@@H](NC(=O)[C@H](CCC(N)=O)NC(=O)[C@@H](N)CCCCN)[C@@H](C)CC)C(=O)N[C@@H](CCCCN)C(=O)N[C@@H](CCCCN)C(=O)N[C@@H](Cc1ccccc1)C(=O)N[C@@H](CCCCN)C(=O)O` [^43Gap19] (H-KQIEIKKFK-OH; N-terminus and C-terminus assumed), for which the “effect on gap junction activity (selectivity)” value at gap junction is listed as “does not affect”. The IC50 with Cx43 hemichannel is 47 µM. In addition, the “effect on Panx1 channel activity (selectivity)” value on Panx1 channel is listed as “does not affect”.
Take `CC(=O)c1ccc2c(c1)[C@H](NC(=O)c1ccc(F)c(Cl)c1)[C@H](O)C(C)(C)O2` [tonabersat, N-[(3S,4S)-6-acetyl-3-hydroxy-2,2-dimethyl-3,4-dihydrochromen-4-yl]-3-chloro-4-fluorobenzamide]: in series [1] (between 40 and 80 mg once daily, single or multiple doses), the “dose proportionality of pharmacokinetics (dose-normalized Cmax and AUC(0-t))” value was “approximately dose proportional”. For the same compound, the half-life in series [1] (oral, read-out: elimination half-life) was 24 to 36 h; in series [1] (oral, read-out: mean half-life (converted)), about 25 h; in [1] (po, single and repeat oral dosing, read-out: terminal elimination phase T1/2), 24 to 33 h; in [2] (after multiple dosing, Day 14), 37.5 to 41.6 h; in series [2] (after single dosing), 28.9 to 37.8 h. In series [1] (single and repeat oral dosing), the “time tonabersat generally quantifiable in the plasma post-dose” value is listed as “at least 96 hours”. For the same compound, the “time- or dose-related changes in systemic exposure” value in series [1] (single and repeat oral dosing) is on record as “no evidence”. For the same compound, in [2] (fed vs fasted), the “half-life, effect of fed conditions” value was “not affected”. Also, the “rate of drug absorption in the presence of food” value in [2] (fed vs fasted) was “increased”. Besides, the “total exposure (extent of absorption), effect of food administration” value in [2] (fed vs fasted) is listed as “not affected”. Besides, the AUC(0-inf) (as a rule, the area under the concentration-time curve extrapolated to infinity) in [2] (single dose 320 mg fasted) came out at 285 µg·h/mL; in [2] (single dose 320 mg fed) it was 296 µg·h/mL. The Tmax (commonly the time from dosing to the highest level) was 16 h in series [2] (single dose 240 mg, fasted); 10.5 h in [2] (single dose 320 mg, fasted); 3 to 4 h in [2] (single or multiple dosing 240 mg to 400 mg, fed (light, medium or fed)). Besides, the “accumulation of Cmax and AUC” value in [2] (multiple dosing 13 to 14 consecutive days, Days 13 or 14 compared to Day 1) is listed as “approximately 3 fold”. Besides, the “Cmax and AUC increase with increasing dose” value in series [2] (single and multiple dosing, across the dose range studied) is given as “dose-proportional”.
Take GHGDPLHLEEVKC [^32Gap24]: the “effect on gap junctions” value with gap junctions is “without affecting”.
